Data reported in US20070021456A1, “Aminobenzimidazole derivatives” (MERCK PATENT GMBH, priority 2003, published 2007).

Target: Tie-2 kinase (Homo sapiens, UniProt Q02763)
Experiment: TIE-2 kinase flashplate assay (phosphorylation of poly(Glu, Tyr) with 33P-ATP)
Type: biochemical
Settings: read-out: Inhibition of TIE-2 IC50
Protocol: The assay determines the inhibiting activity of the substances to be tested in the phosphorylation of the substrate poly(Glu, Tyr) by Tie-2 kinase in the presence of radioactive ^33P-ATP. The phosphorylated substrate binds to the surface of a “flashplate” microtitre plate during the incubation time. After removal of the reaction mixture, the microtitre plate is washed a number of times and the radioactivity on its surface is subsequently measured. An inhibiting effect of the substances to be measured results in lower radioactivity compared with an undisturbed enzymatic reaction.

Chain of Tie-2 kinase (Q02763 23-1124): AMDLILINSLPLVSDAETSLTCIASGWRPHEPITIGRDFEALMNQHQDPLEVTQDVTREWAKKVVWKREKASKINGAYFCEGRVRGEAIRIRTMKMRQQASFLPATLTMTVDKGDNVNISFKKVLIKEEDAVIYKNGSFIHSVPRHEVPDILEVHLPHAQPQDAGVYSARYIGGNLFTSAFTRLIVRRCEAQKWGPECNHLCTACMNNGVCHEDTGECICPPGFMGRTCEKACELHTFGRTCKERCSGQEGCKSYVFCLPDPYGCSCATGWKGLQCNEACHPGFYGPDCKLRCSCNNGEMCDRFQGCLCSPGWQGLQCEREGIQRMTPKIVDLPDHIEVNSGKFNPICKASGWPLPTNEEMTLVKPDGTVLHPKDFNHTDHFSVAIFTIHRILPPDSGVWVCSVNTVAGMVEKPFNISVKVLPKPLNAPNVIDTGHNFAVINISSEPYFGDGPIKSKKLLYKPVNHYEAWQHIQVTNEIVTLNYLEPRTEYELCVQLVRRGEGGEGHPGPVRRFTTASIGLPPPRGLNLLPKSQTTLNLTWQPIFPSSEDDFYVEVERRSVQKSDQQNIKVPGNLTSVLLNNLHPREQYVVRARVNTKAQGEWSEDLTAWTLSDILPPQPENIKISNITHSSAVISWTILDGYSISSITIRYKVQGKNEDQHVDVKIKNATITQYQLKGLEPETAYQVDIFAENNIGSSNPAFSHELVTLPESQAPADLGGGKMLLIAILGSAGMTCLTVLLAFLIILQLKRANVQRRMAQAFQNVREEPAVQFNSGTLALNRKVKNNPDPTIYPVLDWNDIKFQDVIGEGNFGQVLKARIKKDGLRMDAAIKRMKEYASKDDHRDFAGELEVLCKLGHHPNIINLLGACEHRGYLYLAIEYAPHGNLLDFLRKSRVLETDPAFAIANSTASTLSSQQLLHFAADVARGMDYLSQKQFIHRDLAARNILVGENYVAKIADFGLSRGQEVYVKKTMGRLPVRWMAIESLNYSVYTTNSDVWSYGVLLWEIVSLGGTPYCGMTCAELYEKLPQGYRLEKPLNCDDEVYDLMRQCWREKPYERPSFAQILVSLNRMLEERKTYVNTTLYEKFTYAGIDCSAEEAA

| IC50 | Compound |
| --- | --- |
| 220 nM | FC(F)(F)c1cc(Br)c2nc(Nc3ccc(Oc4ccc5nsnc5c4)cc3)[nH]c2c1 [A1, [4-(benzo-1,2,5-thiadiazol-5-yloxy)phenyl](4-bromo-6-trifluoromethyl-1H-benzimidazol-2-yl)amine] |
| 250 nM | FC(F)(F)c1cc(Cl)c2nc(Nc3ccc(Oc4ccc5nsnc5c4)cc3)[nH]c2c1 [No. 2] |
| 390 nM | Cc1cc(Oc2ccc(Nc3nc4c(Br)cc(C(F)(F)F)cc4[nH]3)cc2)c(C)c2sc(N)nc12 [No. 31] |
| 320 nM | Nc1nc2ccc(Oc3ccc(Nc4nc5cc(C(F)(F)F)cc(Cl)c5[nH]4)cc3)cc2s1 [No. 38] |
